This note sets out measurements from patent US7833532B2, “Immunogenic lipopeptides comprising T-helper and cytotoxic T lymphocyte (CTL) epitopes” (The Council of The Queensland Institute of Medical Research, priority 2002, dated 2010).

“Also recorded” adds a separate entry of the source. Side chains are listed from the residue outwards. Ends that are not written are not given here.

One assay relates to Listeria monocytogenes. The experiment in a line: Protection against L. monocytogenes challenge (colony forming units in liver). In kind it is in vivo. The settings on record: 9 nmol subcutaneously, i.v. challenge 28 days after priming, CFU in liver; relative to non-lipidated peptide or PBS. From the text: FIG. 12 is a graphical representation showing enhanced protection against L. monocytogenes infection for mice immunized with the lipopeptide designated [P25]-Lys(Pam2Cys-Ser-Ser)-[LLO91-99] in FIG. 2 (based upon SEQ ID NO: 175). Five 5 BALB/c mice were inoculated intravenously with 1,000 bacteria (column 1), or immunized subcutaneously with PBS (column 2) or 9 nmol [P25]-Lys(Pam2Cys-Ser-Ser)-[LLO91-99] peptide (column 3) or 9 nmol non-lipidated [P25]-Lys-[LLO091-99] peptide (SEQ ID NO: 175; column 4), as indicated on the x-axis. Mice were challenged with whole bacteria and the number of colony forming units present in liver was measured 28 days post-challenge (ordinate).
Listeria monocytogenes EGD was cultured overnight at 37° C. on Horse Blood Agar (HBA) plates. The bacteria were washed off the plates using sterile PBS and the concentration adjusted to 5×10^3 Listeria cells/ml. Balb/c mice were infected intravenously with 1×10^3 Listeria cells. The dose was checked retrospectively by plating serial 10-fold dilutions on HBA plates.
Mice immunized s.c. with 9 nmol peptide immunogen or PBS, or i.v. with 1000 bacteria, were challenged by i.v. injection with bacteria 28 days after priming and the number of colony forming units of bacteria present in the liver determined 28 days after challenge.

In a further assay the test system is splenocytes. Nature of the assay: IFN-gamma producing splenocytes after immunization with L. monocytogenes CTL epitope peptides. The settings on record: 9 nmoles subcutaneously, in vitro stimulation with CTL epitope, day 28. The assay is classed as in vivo, BALB/c mice. From the text:
FIG. 11 is a graphical representation showing induction of interferon-gamma producing cells by lipopeptide. Peptide comprising a T-helper epitope and a CTL epitope of Listeria monocytogenes linked via the epsilon amino group of an internal lysine residue positioned between said epitopes to Pam2Cys (i.e. the peptide [P25]-Lys(Pam2Cys-Ser-Ser)-[LLO91-99] listed in FIG. 2 and based upon SEQ ID NO: 175), or lipopeptide(s) based on this structure in which Pam2Cys was linked through the epsilon amino group of said lysine, were used to inoculate mice. […] Splenocytes were obtained from the immunized animals and stimulated in vitro with either the isolated CTL epitope having the sequence set forth in SEQ ID NO: 172 (open bars) or no antigen (filled bars), and the number of (IFN-gamma) producing cells present was measured 28 days later. […]
5 BALB/c mice were inoculated with 9 nmoles of non-lipidated peptide ([P25]-Lys-[LLO91-99]), or lipidated peptide ([P25]-Lys(Pam2Cys-Ser-Ser)-[LLO91-99]) in which lipid was attached between the two epitopes at the approximate centre of the molecule, or with 1000 bacteria. […] The number of interferon-γ producing cells present in spleen was measured on day 28 following in vitro stimulation with the CTL epitope or no antigen. […]

For the substance “[P25]-Lys(Pam2Cys-Ser-Ser)-[LLO91-99]: peptide [P25]-Lys-[LLO91-99] and a lipid of the Formula (IV) conjugated to the epsilon-amino group of the internal lysine (KLIPNASLIENCTKAELK([Ser-Ser-Pam2Cys])GYKDGNEYI)”, the “protection against challenge with whole bacteria” value in the assay on Listeria monocytogenes was “successfully provides protection; also recorded: significantly enhanced protection”. For the same substance, in the assay with splenocytes, the “IFN-γ producing cells per million splenocytes relative to non-lipidated peptide or PBS control” value was “about 15 fold”.
